Reference: EPA's ToxValDB 9.5 (doi:10.2903/j.efsa.2005.28r)
Values after ≈ are worked out from the molar mass of the structure shown.

Columns and labels:
Aphidius rhopalosiphi = details: acute; duration: 7 days; mortality
Apis mellifera = details: acute, mortality
Bibionidae = details: chronic/long-term, duration: 28 days
Bird = details: reproductive; oral; feed
Colinus virginianus = details: acute, oral, mortality
Daphnia magna = details: chronic/long-term; duration: 21 days; reproduction
Oncorhynchus mykiss = details: acute; duration: 96 hours; mortality
Pimephales promelas = details: chronic/long-term; duration: 35 days; growth
Tagia sp. = details: acute; duration: 14 days; mortality

In the case of `CCCN(CCC)c1c([N+](=O)[O-])cc(C(F)(F)F)cc1[N+](=O)[O-]` [Trifluralin], the LEL (Aphidius rhopalosiphi) is reported as 1200 g/ha, the LD50 (Apis mellifera; duration: 48 hours, dermal) is reported as greater than 100 µg/piece and the LD50 (Apis mellifera; oral, unspecified) is reported as greater than 100 µg/piece. For the same compound, the NOEC (Bibionidae; development) was 0.25 mg/L, the NOEC (Bibionidae; mortality) was 810 mg/kg and the NOEC (Bird) was 1000 mg/kg. For the same compound, the LC50 (Colinus virginianus; diet) was 2970 mg/kg, the LD50 (Colinus virginianus) was greater than 2250 mg/kg and the NOEC (Daphnia magna) was 0.0507 mg/L. It also gave an LC50 (Oncorhynchus mykiss) of 0.088 µg/mL (≈ 0.262 µM), an NOEC (Pimephales promelas) of 0.0003 mg/L and an LD50 (Rattus norvegicus; acute, oral, mortality) greater than 5000 mg/kg. It also gave an LOAEL (Rattus norvegicus; chronic, duration: 2 years, histopathology: neoplastic) of 30 mg/kg-day, an NOAEL (Rattus norvegicus; reproduction developmental) of 148 mg/kg-day and an NOAEL (Rattus norvegicus; subchronic, duration: 90 days) of 2.6 mg/kg-day. For the same compound, the LC50 (Tagia sp.) was greater than 1000 mg/kg.
